Measurements taken from article PMC3291479 (2011).
Read-outs that look alike come from different tables or passages of the source.

Experiments:
Type in all cases: biochemical
[1] = biological target: T1, NRH:quinone oxidoreductase 2 (NQO2) (Homo sapiens, UniProt P16083); experiment: rhNQO2 resazurin reduction, 96-well fluorescence assay
T1 sequence (P16083 1-231): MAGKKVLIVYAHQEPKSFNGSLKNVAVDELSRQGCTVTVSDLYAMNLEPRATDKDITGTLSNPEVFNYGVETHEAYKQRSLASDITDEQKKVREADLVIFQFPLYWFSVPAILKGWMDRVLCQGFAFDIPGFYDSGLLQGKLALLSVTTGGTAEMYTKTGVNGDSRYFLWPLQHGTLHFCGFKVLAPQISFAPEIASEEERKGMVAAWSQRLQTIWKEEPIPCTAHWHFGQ

[2] = biological target: T1, NRH:quinone oxidoreductase 2 (NQO2); experiment: NRH-dependent inactivation of rhNQO2; conditions: read-out: rhNQO2 inhibition at 1μM ^a
[3] = biological target: T1, NRH:quinone oxidoreductase 2 (NQO2); experiment: NRH-dependent inactivation of rhNQO2; conditions: read-out: rhNQO2 inhibition at 1μM ^a; remark: listed apart in the source
[4] = biological target: T1, NRH:quinone oxidoreductase 2 (NQO2); experiment: NRH-dependent inactivation of rhNQO2; conditions: read-out: rhNQO2 inhibition at 1μM ^a; remark: listed apart in the source

| SMILES | rhNQO2 resazurin reduction, 96-well fluorescence assay [1] | other results |
| --- | --- | --- |
| O=c1c(O)c(-c2ccc(O)c(O)c2)oc2cc(O)cc(O)c12 [quercetin] | quercetin, imatinib, resveratrol, chloroquine, and melatonin for their ability to inhibit rhNQO2 activity in a cell-free system |  |
| CCN(CC)CCCC(C)Nc1ccnc2cc(Cl)ccc12 (stereo not shown) [chloroquine] | quercetin, imatinib, resveratrol, chloroquine, and melatonin for their ability to inhibit rhNQO2 activity in a cell-free system |  |
| Cc1c(COc2ccc([N+](=O)[O-])cc2)c2c(n1C)C(=O)C=C(NCCCCN)C2=O [compound 1, 5-(4-aminobutyl)amino-1,2-dimethyl-3-[(4-nitrophenoxy)methyl]indole-4,7-dione] |  | inhibition at 1 µM [2]: 96% |
| Cc1ccc(NC(=O)c2ccc(CN3CCN(C)CC3)cc2)cc1Nc1nccc(-c2cccnc2)n1 [imatinib] | quercetin, imatinib, resveratrol, chloroquine, and melatonin for their ability to inhibit rhNQO2 activity in a cell-free system |  |
| Cc1c(COc2c(F)cc(F)cc2F)c2c(n1C)C(=O)C=C(NCCCCN)C2=O [compound 2, 5-(4-aminobutyl)amino-1,2-dimethyl-3-[(2,4,6-trifluorophenoxy)methyl]indole-4,7-dione] |  | inhibition at 1 µM [3]: 96% |
| Oc1ccc(/C=C/c2cc(O)cc(O)c2)cc1 [resveratrol] | quercetin, imatinib, resveratrol, chloroquine, and melatonin for their ability to inhibit rhNQO2 activity in a cell-free system |  |
| Cc1c(COc2c(F)cc(F)cc2F)c2c(n1C)C(=O)C(NCCCCN)=CC2=O [compound 3, 6-(4-aminobutyl)amino-1,2-dimethyl-3-[(2,4,6-trifluorophenoxy)methyl]indole-4,7-dione] |  | inhibition at 1 µM [4]: 33% |
